Reference: patent US20080119515A1, “Heterocyclic Kinase Inhibitors: Methods of Use and Synthesis” (priority 2003, published 2008)

Molecular target: T1, ZAP-70 (Homo sapiens, UniProt P43403)
T1 sequence (P43403 1-619): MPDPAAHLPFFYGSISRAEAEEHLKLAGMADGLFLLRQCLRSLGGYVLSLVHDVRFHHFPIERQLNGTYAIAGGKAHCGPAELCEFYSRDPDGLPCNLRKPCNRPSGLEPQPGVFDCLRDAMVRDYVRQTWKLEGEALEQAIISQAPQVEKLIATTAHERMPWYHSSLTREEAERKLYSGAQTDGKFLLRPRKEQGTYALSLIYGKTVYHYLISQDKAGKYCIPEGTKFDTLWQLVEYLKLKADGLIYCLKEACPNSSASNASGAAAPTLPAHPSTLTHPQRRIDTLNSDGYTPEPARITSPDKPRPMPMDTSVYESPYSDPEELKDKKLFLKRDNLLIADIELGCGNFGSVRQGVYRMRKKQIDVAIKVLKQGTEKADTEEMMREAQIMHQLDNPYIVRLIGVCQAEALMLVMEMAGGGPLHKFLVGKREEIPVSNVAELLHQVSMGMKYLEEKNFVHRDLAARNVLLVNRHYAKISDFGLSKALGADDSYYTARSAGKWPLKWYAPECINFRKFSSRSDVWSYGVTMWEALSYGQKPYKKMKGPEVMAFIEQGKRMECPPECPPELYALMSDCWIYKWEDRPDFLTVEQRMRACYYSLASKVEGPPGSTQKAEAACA
Experiment: DELFIA assay (ZAP-70 kinase, phosphorylation of biotinylated poly(glu,tyr))
Format: biochemical
Conditions: ZAP-70 DELFIA, class symbols; read-out: Activity (IC50 in vitro)
Procedure, shortened: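 3.1 nM ZAP-70 pre-incubated 10 min at room temperature with compound ([…]) and 62.5 nM biotinylated poly(glu,tyr) in 62.5 mM Mops pH 7.0, 12.5 mM MgCl2, 12.5% glycerol, 6.25% DMSO (pre-incubation concentrations); ATP added from 5 mM stock, 30 min reaction, EDTA stop. Phosphorylation read by DELFIA europium anti-phosphotyrosine fluorescence (340/615).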

IC50 [µM]	SMILES
> 10	CN(Cc1ccccc1)c1cc(C(=O)N2CCC[C@H]2CN2CCCC2)c2cc(-c3ccc(C#N)cc3)ccc2n1 [Compound 150]
1 to 10	O=C(c1cc(NCc2ccc(C(F)(F)F)cc2)nc2ccc(-c3cccs3)cc12)N1CCC[C@H]1CN1CCCC1 [Compound 293]
< 1	O=C(c1cc(OCc2ccc(Cl)cc2)nc2ccc(-c3ccc4c(c3)OCO4)cc12)N1CCC[C@H]1CN1CCCC1 [Compound 99]
> 10	NC(=O)c1cc(C(=O)N2CCC[C@H]2CN2CCCC2)c2cc(-c3ccc4c(c3)OCO4)ccc2n1 [Compound 138]
1 to 10	O=C(c1cc(NCc2ccc(C(F)(F)F)cc2)nc2ccc(/C=C/c3cccc(C(F)(F)F)c3)cc12)N1CCC[C@H]1CN1CCCC1 [Compound 288]
> 10	N#Cc1ccc(-c2ccc3nc(N4Cc5ccccc5C[C@H]4CO)cc(C(=O)N4CCC[C@H]4CN4CCCC4)c3c2)cc1 [Compound 245]
> 10	N#Cc1ccc(-c2ccc3nc(NCc4ccc(Cl)cc4Cl)cc(C(=O)N4CCC[C@H]4CN4CCCC4)c3c2)cc1 [Compound 166]
< 1	O=C(c1cc(NCc2ccccc2)nc2ccc(-c3ccc4c(c3)OCO4)cc12)N1CCC[C@H]1CN1CCCC1 [Compound 4]
1 to 10	FC(F)(F)c1ccc(CNc2cc(CN3CCC[C@H]3CN3CCCC3)c3cc(-c4ccc5c(c4)OCO5)ccc3n2)cc1 [Compound 94]
1 to 10	O=C(NCc1ccc(C(F)(F)F)cc1)c1cc(C(=O)N2CCC[C@H]2CN2CCCC2)c2cc(-c3ccc4c(c3)OCO4)ccc2n1 [Compound 139]
> 10	O=C(c1cc(NCc2ccccc2)nc2ccc(-c3ccc4c(c3)OCO4)cc12)N1CCC[C@H]1CO [Compound 80]
< 1	CC1CN(c2ccc(Cc3cc(C(=O)N4CCCC4CN4CCCC4)c4cc(-c5ccc6c(c5)OCO6)ccc4n3)cc2)CCN1 (stereo not shown) [Compound 438]
< 1	O=C(c1cc(NCc2ccc(C(F)(F)F)cc2)nc2ccc(-c3ccc4occc4c3)cc12)N1CCC[C@H]1CN1CCCC1 [Compound 349]
< 1	NCc1ccc(CNc2cc(C(=O)N3CCC[C@H]3CN3CCCC3)c3cc(-c4ccc5c(c4)OCO5)ccc3n2)cc1 [Compound 437]
< 1	COc1ccc(C#Cc2cc(C(=O)N3CCC[C@H]3CN3CCCC3)c3cc(-c4ccc5c(c4)OCO5)ccc3n2)cc1 [Compound 403]
> 10	N#Cc1ccc(-c2ccc3nc(NCc4ccccc4OC(F)F)cc(C(=O)N4CCC[C@H]4CN4CCCC4)c3c2)cc1 [Compound 232]
> 10	N#Cc1ccc(-c2ccc3nc(NCc4cc(F)ccc4F)cc(C(=O)N4CCC[C@H]4CN4CCCC4)c3c2)cc1 [Compound 163]
> 10	CN(CCc1ccccc1)c1cc(C(=O)N2CCC[C@H]2CN2CCCC2)cc(N2CCOCC2)n1 [Compound 370]
1 to 10	N#Cc1ccc(-c2ccc3nc(NCc4cccc(O)c4)cc(C(=O)N4CCC[C@H]4CN4CCCC4)c3c2)cc1 [Compound 321]
> 10	CN(CCc1ccccc1)c1cc(C(=O)N2CCC[C@H]2CN2CCCC2)c2cc(-c3ccc(C#N)cc3)ccc2n1 [Compound 175]

IC50 [µM]	SMILES
< 1	O=C(c1cc(NCc2ccc(C(F)(F)F)cc2)nc2ccc(-c3ccc4cc[nH]c4c3)cc12)N1CCC[C@H]1CN1CCCC1 [Compound 127]
1 to 10	CCN(CCOC)c1cc(C(=O)N2CCC[C@H]2CN2CCCC2)c2cc(-c3ccc4c(c3)OCO4)ccc2n1 [Compound 72]
< 1	CCN(Cc1ccc(C)cc1)c1cc(C(=O)N2CCC[C@H]2CN2CCCC2)c2cc(-c3ccc4c(c3)OCO4)ccc2n1 [Compound 405]
> 10	N#Cc1ccc(-c2ccc3nc(N4CCC(c5ccccc5F)C4)cc(C(=O)N4CCC[C@H]4CN4CCCC4)c3c2)cc1 (stereo partly shown) [Compound 262]
> 10	COc1cccc([C@@H](C)Nc2cc(C(=O)N3CCC[C@H]3CN3CCCC3)c3cc(-c4ccc(C#N)cc4)ccc3n2)c1 [Compound 203]
< 1	O=C(c1cc(Nc2ccc(N3CCNCC3)cc2)nc2ccc(-c3ccc4c(c3)OCO4)cc12)N1CCCC1CN1CCCC1 (stereo not shown) [Compound 428]
> 10	N#Cc1ccc(-c2ccc3nc(NCCc4ccc(Cl)cc4Cl)cc(C(=O)N4CCC[C@H]4CN4CCCC4)c3c2)cc1 [Compound 193]
> 10	C[C@H](c1ccccc1)N(C)c1cc(C(=O)N2CCC[C@H]2CN2CCCC2)c2cc(-c3ccc(C#N)cc3)ccc2n1 [Compound 200]
> 10	N#Cc1ccc(-c2ccc3nc(NCc4cccc(OC(F)(F)F)c4)cc(C(=O)N4CCC[C@H]4CN4CCCC4)c3c2)cc1 [Compound 190]
> 10	COc1cccc([C@H](C)Nc2cc(C(=O)N3CCC[C@H]3CN3CCCC3)c3cc(-c4ccc(C#N)cc4)ccc3n2)c1 [Compound 204]
1 to 10	Cc1c(NCc2ccc(C(F)(F)F)cc2)nc2ccc(-c3ccc4c(c3)OCO4)cc2c1C(=O)N1CCC[C@H]1CN1CCCC1 [Compound 124]
> 10	Cc1ccsc1CNc1cc(C(=O)N2CCC[C@H]2CN2CCCC2)c2cc(-c3ccc(C#N)cc3)ccc2n1 [Compound 271]
> 10	O=C(c1ccnc2ccc(-c3ccc4c(c3)OCO4)cc12)N1CCC[C@H]1CN1CCCC1 [Compound 399]
< 1	Nc1cc(CCc2ccc(C(F)(F)F)cc2)cc2c(C(=O)N3CCC[C@H]3CN3CCCC3)cc(CCc3ccc(C(F)(F)F)cc3)nc12 [Compound 433]
> 10	O=C(c1cc(NCCN2CCCCC2)nc2ccc(-c3ccc4c(c3)OCO4)cc12)N1CCC[C@H]1CN1CCCC1 [Compound 32]
< 1	N#Cc1ccc(-c2ccc3nc(CCc4ccc(C(F)(F)F)cc4)cc(C(=O)N4CCC[C@H]4CN4CCCC4)c3c2)cc1 [Compound 389]
> 10	N#Cc1ccc(-c2ccc3nc(NCc4ccc(-c5cccs5)cc4)cc(C(=O)N4CCC[C@H]4CN4CCCC4)c3c2)cc1 [Compound 234]
> 10	N#Cc1ccc(-c2ccc3nc(NCc4ccccc4Cl)cc(C(=O)N4CCC[C@H]4CN4CCCC4)c3c2)cc1 [Compound 169]
< 1	C[C@@H](Nc1cc(C(=O)N2CCC[C@H]2CN2CCCC2)c2cc(-c3ccc4c(c3)OCO4)ccc2n1)c1ccc(Cl)cc1 [Compound 330]
1 to 10	O=C(c1cc(NCCc2c[nH]cn2)nc2ccc(-c3ccc4c(c3)OCO4)cc12)N1CCC[C@H]1CN1CCCC1 [Compound 49]

IC50 [µM]	SMILES
1 to 10	O=C(c1cc(/C=C/c2ccc(F)cc2)nc2ccc(-c3ccc4c(c3)OCO4)cc12)N1CCC[C@H]1CN1CCCC1 [Compound 131]
> 10	C[Si](C)(C)CCc1cc(C(=O)N2CCC[C@H]2CN2CCCC2)c2cc(-c3ccc4c(c3)OCO4)ccc2n1 [Compound 408]
1 to 10	Nc1cc(C(=O)N2CCC[C@H]2CN2CCCC2)c2cc(-c3ccc4c(c3)OCO4)ccc2n1 [Compound 11]
< 1	COc1ccc(Nc2cc(C(=O)N3CCC[C@H]3CN3CCCC3)c3cc(-c4ccc5c(c4)OCO5)ccc3n2)cc1 [Compound 15]
> 10	CSc1ccccc1CNc1cc(C(=O)N2CCC[C@H]2CN2CCCC2)c2cc(-c3ccc(C#N)cc3)ccc2n1 [Compound 228]
> 10	N#Cc1ccc(-c2ccc3nc(NCc4ccc(F)c(Cl)c4)cc(C(=O)N4CCC[C@H]4CN4CCCC4)c3c2)cc1 [Compound 179]
> 10	CN(Cc1ccccc1)c1cc(C(=O)N2CCC[C@H]2CN2CCCC2)cc(-c2ccc3c(c2)OCO3)n1 [Compound 276]
> 10	Clc1cc(N2CCC[C@H]2CN2CCCC2)c2cc(-c3ccc4c(c3)OCO4)ccc2n1 [Compound 100]
> 10	N#Cc1ccc(-c2ccc3nc(N(Cc4ccccc4)Cc4ccccc4)cc(C(=O)N4CCC[C@H]4CN4CCCC4)c3c2)cc1 [Compound 210]
> 10	O=C(c1cc(Cl)nc2ccccc12)N1CCC[C@H]1CN1CCCC1 [Compound 3]
> 10	N#Cc1ccc(-c2ccc3nc(N4CCC(c5ccc(F)cc5)C4)cc(C(=O)N4CCC[C@H]4CN4CCCC4)c3c2)cc1 (stereo partly shown) [Compound 264]
< 1	Nc1cc(-c2ccc3c(c2)OCO3)cc2c(C(=O)N3CCC[C@H]3CN3CCCC3)cc(CCc3ccc(C(F)(F)F)cc3)nc12 [Compound 432]
< 1	O=C(c1cc(NC2CCCCC2)nc2ccc(-c3ccc4c(c3)OCO4)cc12)N1CCC[C@H]1CN1CCCC1 [Compound 24]
> 10	N=C(NC1CCC1)[C@@H]1CCCN1C(=O)c1cc(NCc2ccc(C(F)(F)F)cc2)nc2ccc(-c3ccc4c(c3)OCO4)cc12 [Compound 378]
> 10	O=C(c1cc(NCc2ccc(C(F)(F)F)cc2)nc2ccc(-c3ccc(C4CCNC[C@H]4O)cc3)cc12)N1CCC[C@H]1CN1CCCC1 (stereo partly shown) [Compound 426]
> 10	O=C(c1cc(NCc2ccc(C(F)(F)F)cc2)nc2ccc(-c3ccc(SC(F)(F)F)cc3)cc12)N1CCC[C@H]1CN1CCCC1 [Compound 350]
> 10	N=C([C@@H]1CCCN1C(=O)c1cc(NCc2ccc(C(F)(F)F)cc2)nc2ccc(-c3ccc4c(c3)OCO4)cc12)N1CCCC1 [Compound 381]
< 1	O=C(c1cc(NCc2cccs2)nc2ccc(-c3ccc4c(c3)OCO4)cc12)N1CCC[C@H]1CN1CCCC1 [Compound 50]
